From patent US20070104648A1, “Compositions, methods of preparing amino acids, and nuclear magnetic resonance spectroscopy” (Glyconix Corporation, priority 2005, published 2007)

Test: not given
Details: physiological pH; cited from earlier work

In the case of `N[C@@H](Cc1ccc(B(O)O)cc1)C(=O)O` [BPA, para-boronophenylalanine], the water solubility is given as “poor water solubility”.

Test: Binding constants (pK) of L-p-BPA carbohydrate/polyol complexes by 1H-NMR integration of aromatic protons
Assay type: physicochemical
Details: 1H-NMR in D2O buffered to physiological pH (7.4); free L-p-BPA vs complex aromatic protons; three concentrations
Source text: For fructose and sorbose, or when a large excess of another carbohydrate or polyol is used, the p-BPA remains in solution at a pH of 7.4, and approximately 90% of the p-BPA is present as its sodium carboxylate, with the remainder as its free acid. A large excess of carbohydrate or polyol is preferred when pK is small; however, for complexes with a pK>about 3 a large excess in not need. The ratio of free p-BPA to p-BPA:carbohydrate complex can be determined by integration of the aromatic protons resonances (p-BPA, 7.73 and 7.33 ppm; p-BPA-carbohydrate complex, 7.5 and 7.2 ppm) in the 1H-NMR spectrum using D2O buffered to physiological pH as the solvent. For example, L-p-boronophenylalanine fructose complex has a pK of 3.2 while the meso-erythitol complex has a pK of 1.0, the threitol complex has a pK of 1.3, the adonitol complex has a pK of 1.7, the arabitol complex has a pK of 2.3, the rhamnitol complex has a pK of 2.3, the xylitol complex has a pK of 2.5, the talitol complex has pK of 2.4, the dulcitol complex has a pK of 2.7, the mannitol complex has a pK of 2.7, the 1-aminodulcitol complex has a pK of 2.9, the sorbitol complex has a pK of 3.2, the 1-aminosorbitol complex has a pK of 3.4, the isomaltitol complex has a pK of 3.4, the cellobiitol complex has a pK of 3.5, the lactitol complex has a pK of 3.7, the maltitol complex has a pK of 3.9, the volemitol complex has a pK of 2.9, the perseitol complex has a pK of 3.1, the glucoheptitol complex has a pK of 3.9, and the alpha,alpha-glucooctitol complex has a pK of 4.1.
L-p-Boronophenylalanine-polyol or -aminopolyol complexes are prepared by combining 0.5 mM of alpha-deuterated or alpha-hydrogenated L-p-BPA with between 1.00 and 1.05 equivalents of complexing agent (with the exception of poorly complexing polyols and carbohydrates, in which up to 4.3 equivalents of polyol or carbohydrates are used) in 2 mL of water. One equivalent of NaOH (1 mL of 0.5 M) is then added and the slurry gently warmed if needed in order to dissolve all solids. The pH is then monitored and reduced to between 7.5 and 7.3 by the addition of Dowex50WX4-50 ion exchange resin. The clear solution is then passed through a 0.2 μm syringe filter and then freeze-dried to constant weight. ^1H and ^13C NMR spectra are recorded on a GE 300 MHz FT-NMR spectrometer with D2O buffered at 7.4 [Bates, R G, Bower, V E. 1956. Alkaline solutions for pH control. Anal. Chem. 28:1322-1324] as the solvent. The binding constants are calculated at three different concentrations by integration of the free L-p-BPA aromatic protons (7.73 and 7.33 ppm) compared with those of the L-p-BPA complexes (7.5 and 7.2 ppm). Spectra of the 1:1 complexes are reported.

Going from “L-p-boronophenylalanine fructose complex [reference compound]” to “L-p-boronophenylalanine-aminodulcitol complex [1-aminodulcitol complex]”, the “pK of the p-BPA:carbohydrate/polyol complex (binding constant)” value falls from 3.2 to 2.9.

First: L-p-boronophenylalanine-aminosorbitol complex [1-aminosorbitol complex]
Second: L-p-boronophenylalanine-cellobiitol complex
The “pK of the p-BPA:carbohydrate/polyol complex (binding constant)” value of the first is lower: 3.4 for the first, 3.5 for the second.

Compared with “L-p-boronophenylalanine-dulcitol complex”, “L-p-boronophenylalanine-isomaltitol complex” is higher in “pK of the p-BPA:carbohydrate/polyol complex (binding constant)” value: 2.7 for the first, 3.4 for the second.

Compared with “L-p-boronophenylalanine-lactitol complex”, “L-p-boronophenylalanine-maltitol complex” is higher in “pK of the p-BPA:carbohydrate/polyol complex (binding constant)” value: 3.7 for the first, 3.9 for the second.

Compared with “L-p-boronophenylalanine-mannitol complex”, “L-p-boronophenylalanine-persietol complex [perseitol complex]” is higher in “pK of the p-BPA:carbohydrate/polyol complex (binding constant)” value: 2.7 for the first, 3.1 for the second.

Going from “L-p-boronophenylalanine-rhamnitol complex” to “L-p-boronophenylalanine-sorbitol complex”, the “pK of the p-BPA:carbohydrate/polyol complex (binding constant)” value rises from 2.3 to 3.2.

Compared with “L-p-boronophenylalanine-volemitol complex”, L-p-boronophenylalanine-xylitol complex is lower in “pK of the p-BPA:carbohydrate/polyol complex (binding constant)” value: 2.9 for the first, 2.5 for the second.

Going from “L-p-boronophenylalanine-α,α-glucooctitol complex [alpha,alpha-glucooctitol complex]” to “L-p-boronophenylalanine-α-glucoheptitol complex”, the “pK of the p-BPA:carbohydrate/polyol complex (binding constant)” value falls from 4.1 to 3.9.
